According to publication PMC4410085 (Bioorganic & medicinal chemistry, 2015):

How the values were obtained:
Bovine brain tubulin = experiment: Tubulin assembly assay; format: biochemical; conditions: read-out: Inhibition tubulin assembly IC50; ± SD; purified bovine brain tubulin
A-10 cells = experiment: Loss of cellular microtubules, indirect immunofluorescence; format: cell-based; conditions: result in words
PDGFR-β = PDGFR-β (Homo sapiens, UniProt P09619); experiment: Phosphotyrosine ELISA cytoblot, PDGFR-β; format: cell-based; conditions: PDGFR-β expressing cells, versus sunitinib
Sequence of PDGFR-β (P09619 33-1106): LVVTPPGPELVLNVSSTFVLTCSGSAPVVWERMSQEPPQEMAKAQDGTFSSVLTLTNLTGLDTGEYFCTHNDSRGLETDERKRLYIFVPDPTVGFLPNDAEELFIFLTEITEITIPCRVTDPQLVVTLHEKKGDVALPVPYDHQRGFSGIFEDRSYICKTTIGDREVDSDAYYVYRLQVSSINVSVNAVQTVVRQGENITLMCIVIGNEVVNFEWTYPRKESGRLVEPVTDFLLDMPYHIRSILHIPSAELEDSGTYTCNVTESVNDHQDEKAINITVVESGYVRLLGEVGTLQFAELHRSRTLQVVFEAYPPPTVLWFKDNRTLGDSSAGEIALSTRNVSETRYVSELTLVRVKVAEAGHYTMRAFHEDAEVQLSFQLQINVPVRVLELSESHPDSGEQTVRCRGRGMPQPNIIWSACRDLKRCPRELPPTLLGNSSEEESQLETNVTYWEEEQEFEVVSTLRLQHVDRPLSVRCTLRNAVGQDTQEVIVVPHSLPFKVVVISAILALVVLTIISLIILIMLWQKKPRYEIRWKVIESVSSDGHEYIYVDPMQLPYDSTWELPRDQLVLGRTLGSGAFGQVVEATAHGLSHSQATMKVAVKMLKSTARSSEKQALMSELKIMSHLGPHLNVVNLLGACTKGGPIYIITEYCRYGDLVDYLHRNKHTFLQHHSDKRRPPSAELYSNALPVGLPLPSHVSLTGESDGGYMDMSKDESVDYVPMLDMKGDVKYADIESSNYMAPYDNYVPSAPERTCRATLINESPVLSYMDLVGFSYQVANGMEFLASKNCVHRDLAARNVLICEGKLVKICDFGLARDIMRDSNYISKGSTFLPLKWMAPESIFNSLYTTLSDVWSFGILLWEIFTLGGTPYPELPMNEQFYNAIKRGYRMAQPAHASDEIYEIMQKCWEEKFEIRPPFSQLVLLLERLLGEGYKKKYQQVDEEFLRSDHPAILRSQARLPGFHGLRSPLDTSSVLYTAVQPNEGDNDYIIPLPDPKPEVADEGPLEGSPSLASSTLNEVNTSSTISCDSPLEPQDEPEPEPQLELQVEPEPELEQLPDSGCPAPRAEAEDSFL

SMILES	IC50 (Bovine brain tubulin)	effect on cellular microtubules (A-10 cells)	fold better than sunitinib, PDGFR-β (PDGFR-β)
COc1ccc(/C=C\c2cc(OC)c(OC)c(OC)c2)cc1O [CA-4]	1000 ± 90 nM		
COc1ccc(N(C)c2nc(C)nc3oc(C)cc23)c(OC)c1 [Compound 2, N-(2,4-dimethoxyphenyl)-N,2,6-trimethylfuro[2,3-d]pyrimidin-4-amine]		dose-dependent loss of cellular microtubules	
COc1ccc(N(C)c2nc(C)nc3oc(C)cc23)cc1OC [Compound 3, N-(3,4-dimethoxyphenyl)-N,2,6-trimethylfuro[2,3-d]pyrimidin-4-amine]		dose-dependent loss of cellular microtubules	
Cc1nc(N(C)c2ccc3c(c2)CCO3)c2cc(C)oc2n1 [Compound 6, N-(2,3-dihydro-1-benzofuran-5-yl)-N,2,6-trimethylfuro[2,3-d]pyrimidin-4-amine]		dose-dependent loss of cellular microtubules	about 4 fold
Cc1nc(N(C)c2ccc3occc3c2)c2cc(C)oc2n1 [Compound 7, N-1-benzofuran-5-yl-N,2,6-trimethylfuro[2,3-d]pyrimidin-4-amine]		dose-dependent loss of cellular microtubules	about 4 fold
COc1ccc2c(c1)CCN2c1nc(C)nc2oc(C)cc12 [Compound 8, 4-(5-methoxyindolin-1-yl)-2,6-dimethylfuro[2,3-d]pyrimidine]		no effect on cellular microtubules	
COc1ccc2c(c1)CCCN2c1nc(C)nc2oc(C)cc12 [Compound 10, 4-(6-methoxy-3,4-dihydroquinolin-1(2H)-yl)-2,6-dimethylfuro[2,3-d]pyrimidine]		dose-dependent loss of cellular microtubules	
CCOc1ccc(N(C)c2nc(C)nc3oc(C)cc23)cc1 [Compound 12, N-(4-ethoxyphenyl)-N,2,6-trimethylfuro[2,3-d]pyrimidin-4-amine]		dose-dependent loss of cellular microtubules	
